The NIST ThermoML archive (doi:10.1021/je034087q)
Numbers after ± are expanded uncertainties.

Test: xn = mol fraction of the nth substance listed
Conditions: Fluid (supercritical or subcritical phases)

CC(C)=O [acetone] + O=C=O
Conditions	mass density [kg/m3]
326.65 K, 9200 kPa, x2 = 0.933	535 ± 3
326.65 K, 9240 kPa, x2 = 0.933	540 ± 3
326.65 K, 9270 kPa, x2 = 0.933	544 ± 3
326.65 K, 9310 kPa, x2 = 0.933	549 ± 3
326.65 K, 9340 kPa, x2 = 0.933	553 ± 3
326.65 K, 9370 kPa, x2 = 0.933	559 ± 4
326.65 K, 9410 kPa, x2 = 0.933	563 ± 4
326.65 K, 9460 kPa, x2 = 0.933	569 ± 4
326.65 K, 9500 kPa, x2 = 0.933	574 ± 4
326.65 K, 9550 kPa, x2 = 0.933	579 ± 4
326.65 K, 9600 kPa, x2 = 0.933	584 ± 4
326.65 K, 9660 kPa, x2 = 0.933	590 ± 4
326.65 K, 9710 kPa, x2 = 0.933	594 ± 4
326.65 K, 9790 kPa, x2 = 0.933	601 ± 4
326.65 K, 9850 kPa, x2 = 0.933	606 ± 4
326.65 K, 9930 kPa, x2 = 0.933	612 ± 4
326.65 K, 10010 kPa, x2 = 0.933	617 ± 4
326.65 K, 10110 kPa, x2 = 0.933	625 ± 4
326.65 K, 10210 kPa, x2 = 0.933	630 ± 4
326.65 K, 10340 kPa, x2 = 0.933	637 ± 4
326.65 K, 10470 kPa, x2 = 0.933	643 ± 4
326.65 K, 10590 kPa, x2 = 0.933	650 ± 4
326.65 K, 10750 kPa, x2 = 0.933	656 ± 4
326.65 K, 10920 kPa, x2 = 0.933	663 ± 4
326.65 K, 11100 kPa, x2 = 0.933	670 ± 4
326.65 K, 11320 kPa, x2 = 0.933	677 ± 4
326.65 K, 11540 kPa, x2 = 0.933	684 ± 4
326.65 K, 11800 kPa, x2 = 0.933	691 ± 4
326.65 K, 12060 kPa, x2 = 0.933	699 ± 4
326.65 K, 12380 kPa, x2 = 0.933	708 ± 4
326.65 K, 12730 kPa, x2 = 0.933	715 ± 4
326.65 K, 13140 kPa, x2 = 0.933	723 ± 5
326.65 K, 13580 kPa, x2 = 0.933	731 ± 5
326.65 K, 14060 kPa, x2 = 0.933	741 ± 5
326.65 K, 14600 kPa, x2 = 0.933	749 ± 5
328.15 K, 9370 kPa, x2 = 0.902	632 ± 4
328.15 K, 9490 kPa, x2 = 0.902	640 ± 4
328.15 K, 9620 kPa, x2 = 0.902	645 ± 4
328.15 K, 9720 kPa, x2 = 0.902	650 ± 4
328.15 K, 9780 kPa, x2 = 0.902	654 ± 4
328.15 K, 9910 kPa, x2 = 0.902	657 ± 4
328.15 K, 10020 kPa, x2 = 0.902	662 ± 4
328.15 K, 10150 kPa, x2 = 0.902	669 ± 4
328.15 K, 10330 kPa, x2 = 0.902	673 ± 4
328.15 K, 10480 kPa, x2 = 0.902	679 ± 4
328.15 K, 10610 kPa, x2 = 0.902	684 ± 4
328.15 K, 10820 kPa, x2 = 0.902	688 ± 4
328.15 K, 11020 kPa, x2 = 0.902	695 ± 4
328.15 K, 11200 kPa, x2 = 0.902	700 ± 4
328.15 K, 11440 kPa, x2 = 0.902	705 ± 4
328.15 K, 11720 kPa, x2 = 0.902	711 ± 4
328.15 K, 11920 kPa, x2 = 0.902	716 ± 4
328.15 K, 12230 kPa, x2 = 0.902	721 ± 5
328.15 K, 12460 kPa, x2 = 0.902	727 ± 5
328.15 K, 12780 kPa, x2 = 0.902	733 ± 5
